# Patent US10689378B2, “Triazolopyridine compounds and uses thereof” (Novartis AG, priority 2016, dated 2020)
# Like-named read-outs stand apart in the source and are kept apart here.
# Key:
# [1] = molecular target: wild type PRC2 (wtPRC2) complex (Homo sapiens, UniProt O75530); assay: EED LC-MS assay (SAH production by PRC2); format: biochemical
# How it was run: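 LC-MS/MS readout of SAH (d4-SAH standard) after TFA quench gives PRC2 activity, normalized to controls and fitted to dose-response for IC50. Reaction: 12 nM EZH2/SUZ12/EED/Rbap48/AEBP complex, 1 μM SAM, 1.5 μM H3[21-44] peptide, 120 min rt, 20 min compound preincubation.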
# EED (1-441)-His protein = molecular target: T1, EED (1-441)-His protein (Homo sapiens, UniProt O75530); assay: EED-H3K27Me3 peptide competition binding assay by AlphaScreen
# T1 construct: 30 nM EED (1-441)-His protein
# T1 sequence (O75530 whole entry): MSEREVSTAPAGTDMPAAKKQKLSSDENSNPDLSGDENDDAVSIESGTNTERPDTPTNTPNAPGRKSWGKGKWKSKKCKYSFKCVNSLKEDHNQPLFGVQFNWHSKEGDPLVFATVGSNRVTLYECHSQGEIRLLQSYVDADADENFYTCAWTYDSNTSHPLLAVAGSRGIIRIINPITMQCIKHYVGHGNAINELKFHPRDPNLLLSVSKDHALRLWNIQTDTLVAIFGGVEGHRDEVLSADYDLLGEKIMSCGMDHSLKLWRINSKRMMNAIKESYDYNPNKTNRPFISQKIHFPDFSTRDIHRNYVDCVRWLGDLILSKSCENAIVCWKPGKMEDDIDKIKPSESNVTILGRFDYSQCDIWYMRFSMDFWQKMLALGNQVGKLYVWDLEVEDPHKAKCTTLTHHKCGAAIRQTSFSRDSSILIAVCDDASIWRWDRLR
# How it was run: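 Serially diluted compound (12 points, 3-fold) incubated 20 min with 30 nM EED(1-441)-His and 15 nM biotin-H3K27Me3(19-33) peptide in 25 mM HEPES pH 8, 0.02% Tween-20, 0.5% BSA. Ni-chelate acceptor/streptavidin donor beads (10 μg/mL each) added, 1 h rt dark; 615 nm emission normalized to controls, dose-response fit for IC50.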
# [2] = test system: H3K27 methylation in G401 cell; assay: ELISA (H3K27 methylation) assay in G401 cells; format: cell-based, human; details: Homo sapiens
# How it was run: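 IC50 from dose-response fit of percent inhibition relative to DMSO, using H3K27me3/me2 ELISA signal (ECL) normalized to histone H3. Histones HCl-extracted after 48 h compound exposure of G401 cells at up to 20 μM, 8- or 12-point 3-fold series.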
# [3] = read-out: (b) IC50, EED LC-MS Qualified
# [4] = read-out: (a) IC50, EED Alphascreen binding Qualified
# [5] = G-401, read-out: (c) IC50, ELISA Qualified
# [6] = PRC2 LC-MS assay, read-out: (b) IC50 EED LC-MS Qualified
# [7] = EED-H3K27Me3 peptide competition, AlphaScreen, read-out: (a) IC50 EED Alphascreen binding Qualified
# [8] = G-401, H3K27 methylation ELISA, read-out: (c) IC50 ELISA Qualified
# [9] = read-out: (b) IC50 EED LC-MS Qualified
# [10] = read-out: (a) IC50 EED Alphascreen binding Qualified
# [11] = G-401, read-out: (c) IC50 ELISA Qualified
# Sequence of wild type PRC2 (wtPRC2) complex (O75530 whole entry): as above
# Sequence of wild type PRC2 (wtPRC2) complex (Q15910 whole entry partner): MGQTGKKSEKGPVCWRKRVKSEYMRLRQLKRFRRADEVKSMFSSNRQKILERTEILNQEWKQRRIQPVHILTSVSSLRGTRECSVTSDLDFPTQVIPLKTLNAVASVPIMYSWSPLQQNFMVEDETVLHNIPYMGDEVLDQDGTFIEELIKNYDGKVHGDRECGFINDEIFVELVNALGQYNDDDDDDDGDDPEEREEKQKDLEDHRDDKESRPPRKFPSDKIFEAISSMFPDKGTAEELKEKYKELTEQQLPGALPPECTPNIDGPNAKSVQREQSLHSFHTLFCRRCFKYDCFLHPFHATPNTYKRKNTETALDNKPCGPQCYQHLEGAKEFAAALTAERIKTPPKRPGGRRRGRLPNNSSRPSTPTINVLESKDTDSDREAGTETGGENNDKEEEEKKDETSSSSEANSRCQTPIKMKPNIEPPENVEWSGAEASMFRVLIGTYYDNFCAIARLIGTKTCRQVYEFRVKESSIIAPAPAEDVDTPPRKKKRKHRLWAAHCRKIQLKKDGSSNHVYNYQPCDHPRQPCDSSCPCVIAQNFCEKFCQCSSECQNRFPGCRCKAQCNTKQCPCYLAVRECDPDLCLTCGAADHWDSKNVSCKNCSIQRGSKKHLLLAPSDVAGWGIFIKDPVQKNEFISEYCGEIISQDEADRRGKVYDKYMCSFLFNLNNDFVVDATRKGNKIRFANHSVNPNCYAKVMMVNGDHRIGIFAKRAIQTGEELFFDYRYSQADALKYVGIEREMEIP
# Sequence of wild type PRC2 (wtPRC2) complex (Q15022 whole entry partner): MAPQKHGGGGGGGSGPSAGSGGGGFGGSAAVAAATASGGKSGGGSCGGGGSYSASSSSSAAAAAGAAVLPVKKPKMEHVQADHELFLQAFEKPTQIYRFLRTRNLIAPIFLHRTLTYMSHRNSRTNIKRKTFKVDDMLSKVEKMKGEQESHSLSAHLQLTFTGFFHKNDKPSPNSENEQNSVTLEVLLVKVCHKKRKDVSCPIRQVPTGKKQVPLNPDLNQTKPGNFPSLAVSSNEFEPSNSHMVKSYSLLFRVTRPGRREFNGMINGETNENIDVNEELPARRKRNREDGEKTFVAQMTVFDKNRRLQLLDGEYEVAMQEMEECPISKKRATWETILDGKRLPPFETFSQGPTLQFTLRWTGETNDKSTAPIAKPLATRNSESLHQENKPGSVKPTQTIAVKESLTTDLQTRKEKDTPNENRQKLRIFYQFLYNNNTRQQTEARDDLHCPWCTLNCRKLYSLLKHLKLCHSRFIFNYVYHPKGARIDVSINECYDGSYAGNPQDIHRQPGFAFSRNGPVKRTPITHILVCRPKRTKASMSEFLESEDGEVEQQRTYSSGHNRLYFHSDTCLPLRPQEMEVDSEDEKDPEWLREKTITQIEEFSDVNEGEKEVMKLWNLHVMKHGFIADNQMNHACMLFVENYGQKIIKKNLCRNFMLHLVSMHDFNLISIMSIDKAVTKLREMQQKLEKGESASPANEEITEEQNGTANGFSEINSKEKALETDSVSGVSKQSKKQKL
# Sequence of wild type PRC2 (wtPRC2) complex (Q09028 whole entry partner): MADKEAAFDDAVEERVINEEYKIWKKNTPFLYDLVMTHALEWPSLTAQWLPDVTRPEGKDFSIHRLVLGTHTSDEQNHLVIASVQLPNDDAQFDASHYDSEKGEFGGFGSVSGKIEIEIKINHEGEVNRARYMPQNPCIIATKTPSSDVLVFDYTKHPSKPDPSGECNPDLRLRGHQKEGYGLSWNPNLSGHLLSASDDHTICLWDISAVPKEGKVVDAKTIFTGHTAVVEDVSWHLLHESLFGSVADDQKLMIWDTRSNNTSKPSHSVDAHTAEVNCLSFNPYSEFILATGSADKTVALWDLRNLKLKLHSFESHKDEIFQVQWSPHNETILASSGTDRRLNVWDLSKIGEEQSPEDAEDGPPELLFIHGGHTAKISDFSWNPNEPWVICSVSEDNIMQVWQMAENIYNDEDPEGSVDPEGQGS
# Sequence of wild type PRC2 (wtPRC2) complex (Q6ZN18 whole entry partner): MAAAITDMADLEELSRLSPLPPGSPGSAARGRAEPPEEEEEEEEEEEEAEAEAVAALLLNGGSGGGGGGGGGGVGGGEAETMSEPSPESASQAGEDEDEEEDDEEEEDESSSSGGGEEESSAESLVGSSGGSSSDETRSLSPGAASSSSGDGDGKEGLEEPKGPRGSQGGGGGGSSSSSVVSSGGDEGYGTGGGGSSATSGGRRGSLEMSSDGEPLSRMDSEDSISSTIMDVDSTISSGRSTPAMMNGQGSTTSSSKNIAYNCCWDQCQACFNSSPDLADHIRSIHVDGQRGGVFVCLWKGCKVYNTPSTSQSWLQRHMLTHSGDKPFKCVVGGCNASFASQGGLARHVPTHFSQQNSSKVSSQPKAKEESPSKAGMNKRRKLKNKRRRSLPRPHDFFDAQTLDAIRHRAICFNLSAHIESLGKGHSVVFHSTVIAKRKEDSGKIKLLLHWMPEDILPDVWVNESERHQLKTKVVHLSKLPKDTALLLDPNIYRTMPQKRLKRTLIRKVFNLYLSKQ
smiles,measurement,setting,value
"COc1ccccc1CNc1ccc(-c2ccc(S(=O)(=O)C3CCN(C)CC3)cc2)c2nncn12 [Example 128, N-(2-methoxybenzyl)-8-(4-((1-methylpiperidin-4-yl)sulfonyl)phenyl)-[1,2,4] triazolo[4,3-a]pyridin-5-amine]",IC50,[1]; [3],0.224 µM
same,IC50,EED (1-441)-His protein; [4],0.0332 µM
same,IC50,[2]; [5],0.0185 µM
"COc1ccccc1CNc1ccc(-c2ccc(S(=O)(=O)N3CCCC3)cc2)c2nncn12 [Example 68, N-(2-methoxybenzyl)-8-(4-(pyrrolidin-1-ylsulfonyl)phenyl)-[1,2,4]triazolo[4,3-a] pyridin-5-amine]",IC50,[1]; [3],0.311 µM
same,IC50,EED (1-441)-His protein; [4],0.0167 µM
same,IC50,[2]; [5],0.0497 µM
"COc1cccc(F)c1CNc1ccc(-c2cncc(OCCCS(C)(=O)=O)c2)c2nncn12 [Example 198, N-(2-fluoro-6-methoxybenzyl)-8-(5-(3-(methylsulfonyl)propoxy)pyridin-3-yl)-[1,2,4]triazolo [4,3-a]pyridin-5-amine]",IC50,[1]; [6],0.235 µM
same,IC50,EED (1-441)-His protein; [7],0.0345 µM
same,IC50,[2]; [8],0.032 µM
"COc1ccc(-c2ccc(NCc3ccccc3OC)n3cnnc23)cn1 [Example 16, N-(2-methoxybenzyl)-8-(6-methoxypyridin-3-yl)-[1,2,4] triazolo[4,3-a]pyridin-5-amine]",IC50,[1]; [3],0.377 µM
same,IC50,EED (1-441)-His protein; [4],0.0562 µM
same,IC50,[2]; [5],0.158 µM
"COc1cccc(F)c1CNc1ccc(-c2ccc(C)nc2C)c2nncn12 [Example 249, 8-(2,6-dimethylpyridin-3-yl)-N-(2-fluoro-6-methoxybenzyl)-[1,2,4]triazolo[4,3-a] pyridin-5-amine]",IC50,[1]; [6],0.0419 µM
same,IC50,EED (1-441)-His protein; [7],0.0227 µM
same,IC50,[2]; [8],0.0124 µM
"COc1ccccc1CNc1ccc(-c2ccc(N3CCN(C(C)C)CC3)nc2)c2nncn12 [Example 87, 8-(6-(4-isopropylpiperazin-1-yl)pyridin-3-yl)-N-(2-methoxybenzyl)-[1,2,4] triazolo[4,3-a]pyridin-5-amine]",IC50,[1]; [3],0.239 µM
same,IC50,EED (1-441)-His protein; [4],0.0392 µM
same,IC50,[2]; [5],0.0901 µM
"COc1cccc(F)c1CNc1ccc(-c2ccc(N3CCOCC3)nc2C)c2nncn12 [Example 266, N-(2-fluoro-6-methoxybenzyl)-8-(2-methyl-6-morpholinopyridin-3-yl)-[1,2,4]triazolo[4,3-a]pyridin-5-amine]",IC50,[1]; [6],0.0562 µM
same,IC50,EED (1-441)-His protein; [7],0.0089 µM
same,IC50,[2]; [8],0.0099 µM
"COc1cccc(F)c1CNc1ccc(-c2cn(C)nc2CO)c2nncn12 [Example 330, (4-(5-((2-fluoro-6-methoxy benzyl)amino)-[1,2,4]triazolo[4,3-a]pyridin-8-yl)-1-methyl-1H-pyrazol-3-yl) methanol]",IC50,[1]; [6],0.0962 µM
same,IC50,EED (1-441)-His protein; [7],0.024 µM
same,IC50,[2]; [8],0.024 µM
"COc1cc(F)cc(F)c1CNc1ccc(-c2cnc(S(C)(=O)=O)cc2C)c2nncn12 [Example 240, N-(2,4-difluoro-6-methoxybenzyl)-8-(4-methyl-6-(methylsulfonyl)pyridin-3-yl)-[1,2,4]triazolo[4,3-a] pyridin-5-amine]",IC50,[1]; [6],0.0534 µM
same,IC50,EED (1-441)-His protein; [7],0.0521 µM
same,IC50,[2]; [8],0.0295 µM
COc1cccc(F)c1CNc1ccc(-c2cncn2C)c2nncn12 [Example 8],IC50,[1]; [3],0.0352 µM
same,IC50,EED (1-441)-His protein; [4],0.0106 µM
same,IC50,[2]; [5],0.0043 µM
"COc1cccc(F)c1CNc1ccc(-c2cn(CCO)nc2C(F)(F)F)c2nncn12 [Example 312, 2-(4-(5-((2-fluoro-6-methoxybenzyl)amino)-[1,2,4]triazolo[4,3-a]pyridin-8-yl)-3-(trifluoromethyl)-1H-pyrazol-1-yl)ethanol]",IC50,[1]; [6],0.171 µM
same,IC50,EED (1-441)-His protein; [7],0.0312 µM
same,IC50,[2]; [8],0.0225 µM
"COc1ccc(-c2ccc(NCc3c(F)cc(F)cc3OC)n3cnnc23)c(C)n1 [Example 319, N-(2,4-difluoro-6-methoxybenzyl)-8-(6-methoxy-2-methylpyridin-3-yl)-[1,2,4] triazolo[4,3-a]pyridin-5-amine]",IC50,[1]; [6],0.13 µM
same,IC50,EED (1-441)-His protein; [7],0.0285 µM
same,IC50,[2]; [8],0.0407 µM
"COc1cccc(F)c1CNc1ccc(-n2cc(C)c(C)n2)c2nncn12 [Example 367, 8-(3,4-dimethyl-1H-pyrazol-1-yl)-N-(2-fluoro-6-methoxybenzyl)-[1,2,4]triazolo[4,3-a] pyridin-5-amine]",IC50,[1]; [9],0.113 µM
same,IC50,EED (1-441)-His protein; [10],0.0235 µM
same,IC50,[2]; [11],0.0291 µM
"COc1cccc(F)c1CNc1ccc(-c2cnc(N3CCN(C(C)C)CC3)nc2)c2nncn12 [Example 131, N-(2-fluoro-6-methoxybenzyl)-8-(2-(4-isopropylpiperazin-1-yl)pyrimidin-5-yl)-[1,2,4]triazolo[4,3-a] pyridin-5-amine]",IC50,[1]; [3],0.181 µM
same,IC50,EED (1-441)-His protein; [4],0.0322 µM
same,IC50,[2]; [5],0.0812 µM
"COc1cccc(F)c1CNc1ccc(-c2cnccn2)c2nncn12 [Example 325, N-(2-fluoro-6-methoxybenzyl)-8-(pyrazin-2-yl)-[1,2,4]triazolo[4,3-a]pyridin-5-amine]",IC50,[1]; [6],0.141 µM
same,IC50,EED (1-441)-His protein; [7],0.037 µM
same,IC50,[2]; [8],0.0338 µM
"COc1cccc(F)c1CNc1ccc(-c2cccnc2OC)c2nncn12 [Example 176, N-(2-fluoro-6-methoxybenzyl)-8-(2-methoxypyridin-3-yl)-[1,2,4]triazolo [4,3-a]pyridin-5-amine]",IC50,[1]; [6],0.176 µM
same,IC50,EED (1-441)-His protein; [7],0.0329 µM
same,IC50,[2]; [8],0.0586 µM
"COc1cccc(F)c1CNc1ccc(-c2ccc(OCCS(C)(=O)=O)cc2)c2nncn12 [Example 169, N-(2-fluoro-6-methoxybenzyl)-8-(4-(2-(methylsulfonyl)ethoxy)phenyl)-[1,2,4]triazolo[4,3-a] pyridin-5-amine]",IC50,[1]; [3],0.305 µM
same,IC50,EED (1-441)-His protein; [4],0.0845 µM
same,IC50,[2]; [5],0.105 µM
"COc1ccccc1CNc1ccc(-c2ccc(CCN(C)C)cc2)c2nncn12 [Example 123, 8-(4-(2-(dimethylamino)ethyl)phenyl)-N-(2-methoxybenzyl)-[1,2,4]triazolo[4,3-a] pyridin-5-amine]",IC50,[1]; [3],0.368 µM
same,IC50,EED (1-441)-His protein; [4],0.042 µM
same,IC50,[2]; [5],0.0994 µM
"COc1ccccc1CNc1ccc(-c2ccc(S(=O)(=O)N(C)C)cc2)c2nncn12 [Example 34, 4-(5-((2-methoxybenzyl)amino)-[1,2,4]triazolo[4,3-a]pyridin-8-yl)-N,N-dimethyl benzenesulfonamide]",IC50,[1]; [3],0.358 µM
same,IC50,EED (1-441)-His protein; [4],0.0045 µM
same,IC50,[2]; [5],0.0184 µM
"COc1ncccc1CNc1ccc(-c2ccc(CN(C)C)cc2)c2nncn12 [Example 374, 8-(4-((dimethylamino)methyl)phenyl)-N-((2-methoxypyridin-3-yl)methyl)-[1,2,4]triazolo[4,3-a] pyridin-5-amine]",IC50,[1]; [9],0.144 µM
same,IC50,EED (1-441)-His protein; [10],0.0583 µM
same,IC50,[2]; [11],0.0467 µM
"COc1cccc(F)c1CNc1ccc(-c2cnc(S(C)(=O)=O)c(C)c2)c2nncn12 [Example 160, N-(2-fluoro-6-methoxybenzyl)-8-(5-methyl-6-(methylsulfonyl)pyridin-3-yl)-[1,2,4]triazolo[4,3-a] pyridin-5-amine]",IC50,[1]; [3],0.351 µM
same,IC50,EED (1-441)-His protein; [4],0.0157 µM
same,IC50,[2]; [5],0.0148 µM
"COc1cccc(F)c1CNc1ccc(-c2cncc(C(=O)N(C)C)c2)c2nncn12 [Example 195, 5-(5-((2-fluoro-6-methoxybenzyl)amino)-[1,2,4]triazolo[4,3-a]pyridin-8-yl)-N,N-dimethylnicotinamide]",IC50,[1]; [6],0.0613 µM
same,IC50,EED (1-441)-His protein; [7],0.0176 µM
same,IC50,[2]; [8],0.008 µM
"COc1cccc(F)c1CNc1ccc(-c2cn(C(C)C)nc2C)c2nncn12 [Example 282, N-(2-fluoro-6-methoxybenzyl)-8-(1-isopropyl-3-methyl-1H-pyrazol-4-yl)-[1,2,4]triazolo[4,3-a]pyridin-5-amine]",IC50,[1]; [6],0.0157 µM
same,IC50,EED (1-441)-His protein; [7],0.0107 µM
same,IC50,[2]; [8],0.0081 µM
"COc1ccccc1CNc1ccc(-c2ccc(S(=O)(=O)C(C)C)cc2)c2nncn12 [Example 57, 8-(4-(isopropylsulfonyl)phenyl)-N-(2-methoxybenzyl)-[1,2,4]triazolo[4,3-a] pyridin-5-amine]",IC50,[1]; [3],0.183 µM
same,IC50,EED (1-441)-His protein; [4],0.0159 µM
same,IC50,[2]; [5],0.0395 µM
"COc1cccc(F)c1CNc1ccc(-c2cncc(C)c2)c2nncn12 [Example 165, N-(2-fluoro-6-methoxybenzyl)-8-(5-methylpyridin-3-yl)-[1,2,4]triazolo[4,3-a]pyridin-5-amine]",IC50,[1]; [3],0.038 µM
same,IC50,EED (1-441)-His protein; [4],0.0159 µM
same,IC50,[2]; [5],0.014 µM
"COc1cccc(F)c1CNc1ccc(-c2c(C)nn(CC(C)O)c2C)c2nncn12 (stereo not drawn) [Example 274, 1-(4-(5-((2-fluoro-6-methoxybenzyl)amino)-[1,2,4]triazolo[4,3-a]pyridin-8-yl)-3,5-dimethyl-1H-pyrazol-1-yl)propan-2-ol]",IC50,[1]; [6],0.0253 µM
same,IC50,EED (1-441)-His protein; [7],0.0146 µM
same,IC50,[2]; [8],0.0154 µM
"COc1cccc(F)c1CNc1ccc(-c2cnc(C)nc2OC)c2nncn12 [Example 372, N-(2-fluoro-6-methoxybenzyl)-8-(4-methoxy-2-methylpyrimidin-5-yl)-[1,2,4]triazolo[4,3-a]pyridin-5-amine]",IC50,[1]; [9],0.118 µM
same,IC50,EED (1-441)-His protein; [10],0.0211 µM
same,IC50,[2]; [11],0.0338 µM
